From ChEMBL document CHEMBL1649419, “Design and synthesis of pyrimidinone and pyrimidinedione inhibitors of dipeptidyl peptidase IV” (J Med Chem, 2011)

Columns and labels:
[1] = Half life in rat liver microsomes by LC/MS analysis; type: ADME, Microsome
[2] = Half life in human liver microsomes by LC/MS analysis; type: ADME, Microsome
[3] = Half life in rat at 1.4 mg/kg, iv; type: ADME, organism-based; design: dose 1.4 mg/kg, route intravenous; conditions: in vivo
[4] = Half life in dog at 0.52 mg/kg, iv; type: ADME, organism-based, Canis lupus familiaris; design: dose 0.52 mg/kg, route intravenous; conditions: in vivo
[5] = Half life in rat at 14 mg/kg, po; type: ADME, organism-based; design: dose 14 mg/kg, route oral; conditions: in vivo
[6] = Half life in dog at 1.8 mg/kg, po; type: ADME, organism-based, Canis lupus familiaris; design: dose 1.8 mg/kg, route oral; conditions: in vivo
[7] = AUC in rat at 14 mg/kg, po; type: ADME, organism-based; design: dose 14 mg/kg, route oral; conditions: plasma
[8] = AUC in dog at 1.8 mg/kg, po; type: ADME, organism-based, Canis lupus familiaris; design: dose 1.8 mg/kg, route oral; conditions: plasma
[9] = Volume of distribution at steady state in rat at 1.4 mg/kg, iv and 14 mg/kg, po; type: ADME, organism-based; conditions: in vivo, read-out: Vdss
[10] = Volume of distribution at steady state in dog at 0.52 mg/kg, iv and 1.8 mg/kg, po; type: ADME, organism-based, Canis lupus familiaris; conditions: in vivo, read-out: Vdss
[11] = Oral bioavailability in dog at 1.8 mg/kg; type: ADME, organism-based, Canis lupus familiaris; conditions: in vivo
[12] = Oral bioavailability in rat at 14 mg/kg; type: ADME, organism-based; conditions: in vivo
[13] = Half life in rat at 0.71 mg/kg, iv; type: ADME, organism-based; design: dose 0.71 mg/kg, route intravenous; conditions: in vivo
[14] = Volume of distribution at steady state in rat at 0.71 mg/kg, iv and 14 mg/kg, po; type: ADME, organism-based; conditions: in vivo, read-out: Vdss
[15] = Half life in dog at 0.85 mg/kg, iv; type: ADME, organism-based, Canis lupus familiaris; design: dose 0.85 mg/kg, route intravenous; conditions: in vivo
[16] = Half life in dog at 2.7 mg/kg, po; type: ADME, organism-based, Canis lupus familiaris; design: dose 2.7 mg/kg, route oral; conditions: in vivo
[17] = AUC in dog at 2.7 mg/kg, po; type: ADME, organism-based, Canis lupus familiaris; design: dose 2.7 mg/kg, route oral; conditions: plasma
[18] = Volume of distribution at steady state in dog at 0.85 mg/kg, iv and 2.7 mg/kg, po; type: ADME, organism-based, Canis lupus familiaris; conditions: in vivo, read-out: Vdss
[19] = Oral bioavailability in dog at 2.7 mg/kg; type: ADME, organism-based, Canis lupus familiaris; conditions: in vivo
[20] = Half life in rat at 0.8 mg/kg, iv; type: ADME, organism-based; design: dose 0.8 mg/kg, route intravenous; conditions: in vivo
[21] = Half life in dog at 0.8 mg/kg, iv; type: ADME, organism-based, Canis lupus familiaris; design: dose 0.8 mg/kg, route intravenous; conditions: in vivo
[22] = Half life in rat at 11 mg/kg, po; type: ADME, organism-based; design: dose 11 mg/kg, route oral; conditions: in vivo
[23] = Half life in dog at 2.5 mg/kg, po; type: ADME, organism-based, Canis lupus familiaris; design: dose 2.5 mg/kg, route oral; conditions: in vivo
[24] = AUC in rat at 11 mg/kg, po; type: ADME, organism-based; design: dose 11 mg/kg, route oral; conditions: plasma
[25] = AUC in dog at 2.5 mg/kg, po; type: ADME, organism-based, Canis lupus familiaris; design: dose 2.5 mg/kg, route oral; conditions: plasma
[26] = Volume of distribution at steady state in rat at 0.8 mg/kg, iv and 11 mg/kg, po; type: ADME, organism-based; conditions: in vivo, read-out: Vdss
[27] = Volume of distribution at steady state in dog at 0.8 mg/kg, iv and 2.5 mg/kg, po; type: ADME, organism-based, Canis lupus familiaris; conditions: in vivo, read-out: Vdss
[28] = Oral bioavailability in rat at 11 mg/kg; type: ADME, organism-based; conditions: in vivo
[29] = Oral bioavailability in dog at 2.5 mg/kg; type: ADME, organism-based, Canis lupus familiaris; conditions: in vivo
[30] = Half life in rat at 2 mg/kg, iv; type: ADME, organism-based; design: dose 2 mg/kg, route intravenous; conditions: in vivo
[31] = Half life in dog at 1 mg/kg, iv; type: ADME, organism-based, Canis lupus familiaris; design: dose 1 mg/kg, route intravenous; conditions: in vivo
[32] = Half life in rat at 10 mg/kg, po; type: ADME, organism-based; design: dose 10 mg/kg, route oral; conditions: in vivo
[33] = Half life in dog at 3 mg/kg, po; type: ADME, organism-based, Canis lupus familiaris; design: dose 3 mg/kg, route oral; conditions: in vivo
[34] = AUC in rat at 10 mg/kg, po; type: ADME, organism-based; design: dose 10 mg/kg, route oral; conditions: plasma
[35] = AUC in dog at 3 mg/kg, po; type: ADME, organism-based, Canis lupus familiaris; design: dose 3 mg/kg, route oral; conditions: plasma
[36] = Volume of distribution at steady state in rat at 2 mg/kg, iv and 10 mg/kg, po; type: ADME, organism-based; conditions: in vivo, read-out: Vdss
[37] = Volume of distribution at steady state in dog at 1 mg/kg, iv and 3 mg/kg, po; type: ADME, organism-based, Canis lupus familiaris; conditions: in vivo, read-out: Vdss
[38] = Oral bioavailability in rat at 10 mg/kg; type: ADME, organism-based; conditions: in vivo
[39] = Oral bioavailability in dog at 3 mg/kg; type: ADME, organism-based, Canis lupus familiaris; conditions: in vivo
[40] = Half life in monkey at 1.6 mg/kg, iv; type: ADME, organism-based, Macaca mulatta; design: dose 1.6 mg/kg, route intravenous; conditions: rhesus monkey, in vivo
[41] = Half life in monkey at 2.1 mg/kg, po; type: ADME, organism-based, Macaca mulatta; design: dose 2.1 mg/kg, route oral; conditions: rhesus monkey, in vivo
[42] = AUC in monkey at 2.1 mg/kg, po; type: ADME, organism-based, Macaca mulatta; design: dose 2.1 mg/kg, route oral; conditions: rhesus monkey, plasma
[43] = Volume of distribution at steady state in monkey at 1.6 mg/kg, iv and 2.1 mg/kg, po; type: ADME, organism-based, Macaca mulatta; conditions: rhesus monkey, in vivo, read-out: Vdss
[44] = Oral bioavailability in monkey at 2.1 mg/kg; type: ADME, organism-based, Macaca mulatta; conditions: rhesus monkey, in vivo

N#Cc1ccsc1Cn1c(N2CCC[C@@H](N)C2)ncc(Br)c1=O
half-life [1]: 0.25 h | half-life [2]: > 3.33 h

N#Cc1ccc(F)cc1Cn1c(N2CCC[C@@H](N)C2)ncc(F)c1=O
half-life [1]: > 3.33 h | half-life [2]: > 3.33 h

N#Cc1ccc(F)cc1Cn1c(N2CCC[C@@H](N)C2)ncc(Cl)c1=O
half-life [1]: 2.03 h | half-life [2]: > 3.33 h

N#Cc1ccc(F)cc1Cn1c(N2CCC[C@@H](N)C2)ncc(Br)c1=O
half-life [1]: 0.683 h | half-life [2]: > 3.33 h

N#Cc1ccccc1Cn1c(N2CCC[C@@H](N)C2)cc(=O)[nH]c1=O
half-life [1]: > 3.33 h | half-life [2]: 2.15 h

Cn1c(=O)c(Cl)c(N2CCC[C@@H](N)C2)n(Cc2ccccc2C#N)c1=O
half-life [1]: 0.933 h | half-life [2]: 2.73 h

CCn1c(=O)cc(N2CCC[C@@H](N)C2)n(Cc2ccccc2C#N)c1=O
half-life [1]: 0.533 h | half-life [2]: > 3.33 h

N[C@@H]1CCCN(c2cc(=O)[nH]c(=O)n2Cc2ccccc2Br)C1
half-life [1]: > 1.97 h | half-life [2]: > 3.33 h

Cn1c(=O)cc(N2CCC[C@@H](N)C2)n(Cc2ccccc2Br)c1=O
half-life [1]: 1.37 h | half-life [2]: > 3.33 h

Cn1c(=O)cc(N2CCC[C@@H](N)C2)n(Cc2cc(F)ccc2Br)c1=O
half-life [1]: 0.267 h | half-life [2]: 1.5 h

Cn1c(=O)cc(N2CCC[C@@H](N)C2)n(Cc2cc(F)ccc2Cl)c1=O
half-life [1]: 0.883 h | half-life [2]: > 3.33 h

Cn1c(=O)cc(N2CCC[C@@H](N)C2)n(Cc2ccc(F)cc2Cl)c1=O
half-life [1]: 1.12 h | half-life [2]: > 3.33 h

Cn1c(=O)cc(N2CCC[C@@H](N)C2)n(Cc2cc(Cl)ccc2Cl)c1=O
half-life [1]: 0.167 h | half-life [2]: 2.75 h

Cn1c(=O)cc(N2CCC[C@@](C)(N)C2)n(Cc2cc(F)ccc2C#N)c1=O
half-life [1]: 0.583 h | half-life [2]: > 3.33 h

N#Cc1ccccc1Cn1c(N2CCC[C@@H](N)C2)nccc1=O.O=C(O)C(F)(F)F
half-life [3]: 0.74 h | half-life [4]: 2.4 h | half-life [5]: 1 h | half-life [6]: 2.8 h | AUC [7]: 1200 ng·h/mL | AUC [8]: 1400 ng·h/mL | Vd [9]: 4.8 L/kg | Vd [10]: 3 L/kg | bioavailability [11]: 78% | bioavailability [12]: 54%

N#Cc1ccccc1Cn1c(N2CCC[C@@H](N)C2)ncc(F)c1=O.O=C(O)C(F)(F)F
half-life [13]: 1.5 h | half-life [5]: 1.5 h | AUC [7]: 3800 ng·h/mL | Vd [14]: 4.2 L/kg | bioavailability [12]: 73%

Cl.N#Cc1ccccc1Cn1c(N2CCC[C@@H](N)C2)ncc(F)c1=O
half-life [15]: 4.6 h | half-life [16]: 4.5 h | AUC [17]: 3200 ng·h/mL | Vd [18]: 3.5 L/kg | bioavailability [19]: 80%

Cl.N#Cc1ccccc1Cn1c(N2CCC[C@@H](N)C2)ncc(Cl)c1=O
half-life [20]: 1.3 h | half-life [21]: 5.2 h | half-life [22]: 1.3 h | half-life [23]: 4.8 h | AUC [24]: 2800 ng·h/mL | AUC [25]: 8400 ng·h/mL | Vd [26]: 3 L/kg | Vd [27]: 1.9 L/kg | bioavailability [28]: 65% | bioavailability [29]: 90%

Cl.N#Cc1ccccc1Cn1c(N2CCC[C@@H](N)C2)ncc(Br)c1=O
half-life [30]: 1.1 h | half-life [31]: 5.3 h | half-life [32]: 1.7 h | half-life [33]: 6.1 h | AUC [34]: 2400 ng·h/mL | AUC [35]: 14700 ng·h/mL | Vd [36]: 3.2 L/kg | Vd [37]: 1.7 L/kg | bioavailability [38]: 74% | bioavailability [39]: 105%

Cn1c(=O)cc(N2CCC[C@@H](N)C2)n(Cc2ccccc2C#N)c1=O [ALOGLIPTIN]
half-life [1]: 3.33 h | half-life [2]: 2.02 h

N#Cc1ccccc1Cn1c(N2CCC[C@@H](N)C2)ncc(F)c1=O.O=C(O)C(O)C(O)C(=O)O [TARTARATE]
half-life [40]: 4 h | half-life [41]: 5.7 h | AUC [42]: 3100 ng·h/mL | Vd [43]: 3.2 L/kg | bioavailability [44]: 110%

Cn1c(=O)cc(N2CCC[C@@H](N)C2)n(Cc2cc(F)ccc2C#N)c1=O [TRELAGLIPTIN]
half-life [1]: > 3.33 h | half-life [2]: > 3.33 h
